Bridge positions count the residues as written; N and C are the ends. Square brackets hold non-standard residues; d marks the D form. Peptide text beside a SMILES is read from it. * marks the point of attachment. Tyr(3,5-F2) = N[C@@H](Cc1cc(F)c(O)c(F)c1)C(=O)O; Ala(morpholin-4-yl) = N[C@@H](CN1CCOCC1)C(=O)O; Phe(4-CONH2) = NC(=O)c1ccc(C[C@H](N)C(=O)O)cc1; Phe(4-COOH) = N[C@@H](Cc1ccc(C(=O)O)cc1)C(=O)O; Bip = N[C@@H](Cc1ccc(-c2ccccc2)cc1)C(=O)O; Tyr(3-F) = N[C@@H](Cc1ccc(O)c(F)c1)C(=O)O; Phe(3-Me) = Cc1cccc(C[C@H](N)C(=O)O)c1; His(τ-Me) = Cn1cnc(C[C@H](N)C(=O)O)c1; His(π-Me) = Cn1cncc1C[C@H](N)C(=O)O; mTyr = N[C@@H](Cc1cccc(O)c1)C(=O)O; Cha = N[C@@H](CC1CCCCC1)C(=O)O; Cit = NC(=O)NCCC[C@H](N)C(=O)O; Carboxymethyl = O=C(O)C*; Orn = NCCC[C@H](N)C(=O)O; Aun = NCCCCCCCCCCC(=O)O; Dab = NCC[C@H](N)C(=O)O; Dap = NC[C@H](N)C(=O)O; AEEA = NCCOCCOCC(=O)O
Biological target: T1, PD-1/PD-L1 interaction (PE-labeled human PD-L1-Ig binding to Jurkat cell line over-expressing human PD-1) (Homo sapiens, UniProt Q15116)
T1 construct: expressed in transfected cells; host or cells: Jurkat
T1 sequence (Q15116 25-288): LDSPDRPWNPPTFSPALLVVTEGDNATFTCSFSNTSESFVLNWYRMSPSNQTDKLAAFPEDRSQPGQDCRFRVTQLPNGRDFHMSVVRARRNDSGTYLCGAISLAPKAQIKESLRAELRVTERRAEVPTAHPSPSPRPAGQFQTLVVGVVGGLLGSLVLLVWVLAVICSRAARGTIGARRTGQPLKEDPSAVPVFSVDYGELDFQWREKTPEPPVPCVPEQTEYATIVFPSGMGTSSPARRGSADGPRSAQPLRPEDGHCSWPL
Assay: Jurkat-PD-1 Cell Binding High-Content Screening Assay (CBA)
Assay type: cell-based
Conditions: Jurkat cell line over-expressing human PD-1; PE-labeled PD-L1-Ig 20 nM final; read-out: Jurkat hPD1-PDL1 IC50
Procedure, shortened: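 First, compound is added to PD-1-expressing Jurkat cells in serum-containing DMEM and left 2 h at 37° C. Next, PE-conjugated PD-L1-Ig is introduced at 20 nM final concentration for 1 hour. Finally, cells are fixed in 4% paraformaldehyde with Hoechst 33342, washed and imaged.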

| IC50 [nM] | Compound |
| --- | --- |
| 8 | CC(C)C[C@H]1NC(=O)[C@H](CCCN)NC(=O)[C@H](C(C)C)NC(=O)[C@H](Cc2ccc(-c3ccccc3)cc2)NC(=O)[C@H](C(C)C)NC(=O)[C@H](Cc2cccc(O)c2)NC(=O)[C@H](CC(=O)O)NC(=O)[C@H](Cc2ccc(OCC(=O)O)cc2)NC(=O)[C@H](CN)NC(=O)CSC[C@@H](C(=O)N[C@@H](CCN)C(=O)NCCCCCCCCCCC(=O)O)NC(=O)[C@H](CCCCN)NC(=O)[C@H](C(C)C)NC(=O)[C@H](CC2CCCCC2)NC(=O)[C@H](CCN)NC1=O [Compound 2029] ({CH2CO}-[Dap]Y(Carboxymethyl)D[mTyr]V[Bip]V[Orn][dL][Dab][Cha]VKC[Dab][Aun]-OH; thioether N-14) |
| 7.2 | CC(C)C[C@H]1NC(=O)[C@H](CCCN)NC(=O)[C@H](C(C)C)NC(=O)[C@H](Cc2ccc(-c3ccccc3)cc2)NC(=O)[C@H](C(C)C)NC(=O)[C@H](Cc2ccc(O)c(F)c2)NC(=O)[C@H](CC(=O)O)NC(=O)[C@H](Cc2ccc(OCC(=O)O)cc2)NC(=O)[C@H](CN)NC(=O)CSC[C@@H](C(=O)N[C@@H](CCN)C(=O)NCCCCCCCCCCC(=O)O)NC(=O)[C@H](CCCCN)NC(=O)[C@H](C(C)C)NC(=O)[C@H](CC2CCCCC2)NC(=O)[C@H](CCN)NC1=O [Compound 2030] ({CH2CO}-[Dap]Y(Carboxymethyl)D[Tyr(3-F)]V[Bip]V[Orn][dL][Dab][Cha]VKC[Dab][Aun]-OH; thioether N-14) |
| 147 | CC(C)C[C@H]1NC(=O)[C@H](CCCN)NC(=O)[C@H](C(C)C)NC(=O)[C@H](Cc2ccc(-c3ccccc3)cc2)NC(=O)[C@H](C(C)C)NC(=O)[C@H](Cc2cc(F)c(O)c(F)c2)NC(=O)[C@H](CC(=O)O)NC(=O)[C@H](Cc2ccc(OCC(=O)O)cc2)NC(=O)[C@H](CN)NC(=O)CSC[C@@H](C(=O)N[C@@H](CCN)C(=O)NCCCCCCCCCCC(=O)O)NC(=O)[C@H](CCCCN)NC(=O)[C@H](C(C)C)NC(=O)[C@H](CC2CCCCC2)NC(=O)[C@H](CCN)NC1=O [Compound 2032] ({CH2CO}-[Dap]Y(Carboxymethyl)D[Tyr(3,5-F2)]V[Bip]V[Orn][dL][Dab][Cha]VKC[Dab][Aun]-OH; thioether N-14) |
| 29.2 | CC(C)C[C@H]1NC(=O)[C@H](CCCN)NC(=O)[C@H](C(C)C)NC(=O)[C@H](Cc2ccc(-c3ccccc3)cc2)NC(=O)[C@H](C(C)C)NC(=O)[C@H](Cc2ccc(O)cc2)NC(=O)[C@H](CC(=O)O)NC(=O)[C@H](Cc2ccc(OCC(=O)O)cc2)NC(=O)[C@H](CN)NC(=O)CSC[C@@H](C(=O)N[C@@H](CCN)C(=O)NCCCCCCCCCCC(=O)O)NC(=O)[C@H](CCCCN)NC(=O)[C@H](C(C)C)NC(=O)[C@H](CC2CCCCC2)NC(=O)[C@H](CCN)NC1=O [Compound 2033] ({CH2CO}-[Dap]Y(Carboxymethyl)DYV[Bip]V[Orn][dL][Dab][Cha]VKC[Dab][Aun]-OH; thioether N-14) |
| 15.5 | Cc1cccc(C[C@@H]2NC(=O)[C@H](CC(=O)O)NC(=O)[C@H](Cc3ccc(OCC(=O)O)cc3)NC(=O)[C@H](Cc3cncn3C)NC(=O)CSC[C@@H](C(=O)N[C@@H](CCN)C(=O)NCCCCCCCCCCC(=O)O)NC(=O)[C@H]([C@@H](C)O)NC(=O)[C@H](C(C)C)NC(=O)[C@H](CC3CCCCC3)NC(=O)[C@H](CCN)NC(=O)[C@@H](CC(C)C)NC(=O)[C@H](CCCN)NC(=O)[C@H](CCCNC(N)=O)NC(=O)[C@H](Cc3ccc(-c4ccccc4)cc3)NC(=O)[C@H](C(C)C)NC2=O)c1 [Compound 2034] ({CH2CO}-[His(π-Me)]Y(Carboxymethyl)D[Phe(3-Me)]V[Bip][Cit][Orn][dL][Dab][Cha]VTC[Dab][Aun]-OH; thioether N-14) |
| 14.5 | Cc1cccc(C[C@@H]2NC(=O)[C@H](CC(=O)O)NC(=O)[C@H](Cc3ccc(OCC(=O)O)cc3)NC(=O)[C@H](Cc3cncn3C)NC(=O)CSC[C@@H](C(=O)N[C@@H](CCN)C(=O)NCCCCCCCCCCC(=O)O)NC(=O)[C@H](CCCCN)NC(=O)[C@H](C(C)C)NC(=O)[C@H](CC3CCCCC3)NC(=O)[C@H](CCN)NC(=O)[C@@H](CC(C)C)NC(=O)[C@H](CCCN)NC(=O)[C@H](C(C)C)NC(=O)[C@H](Cc3ccc(-c4ccccc4)cc3)NC(=O)[C@H](C(C)C)NC2=O)c1 [Compound 2035] ({CH2CO}-[His(π-Me)]Y(Carboxymethyl)D[Phe(3-Me)]V[Bip]V[Orn][dL][Dab][Cha]VKC[Dab][Aun]-OH; thioether N-14) |
| 14.4 | Cc1cccc(C[C@@H]2NC(=O)[C@H](CC(=O)O)NC(=O)[C@H](Cc3ccc(OCC(=O)O)cc3)NC(=O)[C@H](Cc3cn(C)cn3)NC(=O)CSC[C@@H](C(=O)N[C@@H](CCN)C(=O)NCCCCCCCCCCC(=O)O)NC(=O)[C@H]([C@@H](C)O)NC(=O)[C@H](C(C)C)NC(=O)[C@H](CC3CCCCC3)NC(=O)[C@H](CCN)NC(=O)[C@@H](CC(C)C)NC(=O)[C@H](CCCN)NC(=O)[C@H](CCCNC(N)=O)NC(=O)[C@H](Cc3ccc(-c4ccccc4)cc3)NC(=O)[C@H](C(C)C)NC2=O)c1 [Compound 2036] ({CH2CO}-[His(τ-Me)]Y(Carboxymethyl)D[Phe(3-Me)]V[Bip][Cit][Orn][dL][Dab][Cha]VTC[Dab][Aun]-OH; thioether N-14) |
| 16.9 | Cc1cccc(C[C@@H]2NC(=O)[C@H](CC(=O)O)NC(=O)[C@H](Cc3ccc(OCC(=O)O)cc3)NC(=O)[C@H](Cc3cn(C)cn3)NC(=O)CSC[C@@H](C(=O)N[C@@H](CCN)C(=O)NCCCCCCCCCCC(=O)O)NC(=O)[C@H](CCCCN)NC(=O)[C@H](C(C)C)NC(=O)[C@H](CC3CCCCC3)NC(=O)[C@H](CCN)NC(=O)[C@@H](CC(C)C)NC(=O)[C@H](CCCN)NC(=O)[C@H](C(C)C)NC(=O)[C@H](Cc3ccc(-c4ccccc4)cc3)NC(=O)[C@H](C(C)C)NC2=O)c1 [Compound 2037] ({CH2CO}-[His(τ-Me)]Y(Carboxymethyl)D[Phe(3-Me)]V[Bip]V[Orn][dL][Dab][Cha]VKC[Dab][Aun]-OH; thioether N-14) |
| 38.7 | Cc1cccc(C[C@@H]2NC(=O)[C@H](CC(=O)O)NC(=O)[C@H](Cc3ccc(OCC(=O)O)cc3)NC(=O)[C@H](CN3CCOCC3)NC(=O)CSC[C@@H](C(=O)N[C@@H](CCN)C(=O)NCCCCCCCCCCC(=O)O)NC(=O)[C@H]([C@@H](C)O)NC(=O)[C@H](C(C)C)NC(=O)[C@H](CC3CCCCC3)NC(=O)[C@H](CCN)NC(=O)[C@@H](CC(C)C)NC(=O)[C@H](CCCN)NC(=O)[C@H](CCCNC(N)=O)NC(=O)[C@H](Cc3ccc(-c4ccccc4)cc3)NC(=O)[C@H](C(C)C)NC2=O)c1 [Compound 2038] ({CH2CO}-[Ala(morpholin-4-yl)]Y(Carboxymethyl)D[Phe(3-Me)]V[Bip][Cit][Orn][dL][Dab][Cha]VTC[Dab][Aun]-OH; thioether N-14) |
| 19.4 | Cc1cccc(C[C@@H]2NC(=O)[C@H](CC(=O)O)NC(=O)[C@H](Cc3ccc(OCC(=O)O)cc3)NC(=O)[C@H](CN3CCOCC3)NC(=O)CSC[C@@H](C(=O)N[C@@H](CCN)C(=O)NCCCCCCCCCCC(=O)O)NC(=O)[C@H](CCCCN)NC(=O)[C@H](C(C)C)NC(=O)[C@H](CC3CCCCC3)NC(=O)[C@H](CCN)NC(=O)[C@@H](CC(C)C)NC(=O)[C@H](CCCN)NC(=O)[C@H](C(C)C)NC(=O)[C@H](Cc3ccc(-c4ccccc4)cc3)NC(=O)[C@H](C(C)C)NC2=O)c1 [Compound 2039] ({CH2CO}-[Ala(morpholin-4-yl)]Y(Carboxymethyl)D[Phe(3-Me)]V[Bip]V[Orn][dL][Dab][Cha]VKC[Dab][Aun]-OH; thioether N-14) |
| 8.2 | Cc1cccc(C[C@@H]2NC(=O)[C@H](CC(=O)O)NC(=O)[C@H](Cc3ccc(OCC(=O)O)cc3)NC(=O)[C@H](CN)NC(=O)CSC[C@@H](C(=O)N[C@@H](CCN)C(=O)NCCOCCOCC(=O)NCCCCCCCCCCC(=O)O)NC(=O)[C@H](CCCN)NC(=O)[C@H](C(C)C)NC(=O)[C@H](CC3CCCCC3)NC(=O)[C@H](CCN)NC(=O)[C@@H](CC(C)C)NC(=O)[C@H](CCCN)NC(=O)[C@H](Cc3ccccc3)NC(=O)[C@H](Cc3ccc(-c4ccccc4)cc3)NC(=O)[C@H](Cc3ccc(O)cc3)NC2=O)c1 [Compound 2041] ({CH2CO}-[Dap]Y(Carboxymethyl)D[Phe(3-Me)]Y[Bip]F[Orn][dL][Dab][Cha]V[Orn]C[Dab][AEEA][Aun]-OH; thioether N-14) |
| 5 | Cc1cccc(C[C@@H]2NC(=O)[C@H](CC(=O)O)NC(=O)[C@H](Cc3ccc(OCC(=O)O)cc3)NC(=O)[C@H](CN)NC(=O)CSC[C@@H](C(=O)N[C@@H](CCN)C(=O)NCCOCCOCC(=O)NCCCCCCCCCCC(=O)O)NC(=O)[C@H](CCCN)NC(=O)[C@H](C(C)C)NC(=O)[C@H](CC3CCCCC3)NC(=O)[C@H](CCN)NC(=O)[C@@H](CC(C)C)NC(=O)[C@H](CCCN)NC(=O)[C@H](Cc3ccc(C(=O)O)cc3)NC(=O)[C@H](Cc3ccc(-c4ccccc4)cc3)NC(=O)[C@H](Cc3ccc(O)cc3)NC2=O)c1 [Compound 2042] ({CH2CO}-[Dap]Y(Carboxymethyl)D[Phe(3-Me)]Y[Bip][Phe(4-COOH)][Orn][dL][Dab][Cha]V[Orn]C[Dab][AEEA][Aun]-OH; thioether N-14) |
| 7.2 | Cc1cccc(C[C@@H]2NC(=O)[C@H](CC(=O)O)NC(=O)[C@H](Cc3ccc(OCC(=O)O)cc3)NC(=O)[C@H](CN)NC(=O)CSC[C@@H](C(=O)N[C@@H](CCN)C(=O)NCCOCCOCC(=O)NCCCCCCCCCCC(=O)O)NC(=O)[C@H](CCCN)NC(=O)[C@H](C(C)C)NC(=O)[C@H](CC3CCCCC3)NC(=O)[C@H](CCN)NC(=O)[C@@H](CC(C)C)NC(=O)[C@H](CCCN)NC(=O)[C@H](Cc3ccc(C(N)=O)cc3)NC(=O)[C@H](Cc3ccc(-c4ccccc4)cc3)NC(=O)[C@H](Cc3ccc(O)cc3)NC2=O)c1 [Compound 2045] ({CH2CO}-[Dap]Y(Carboxymethyl)D[Phe(3-Me)]Y[Bip][Phe(4-CONH2)][Orn][dL][Dab][Cha]V[Orn]C[Dab][AEEA][Aun]-OH; thioether N-14) |
